Assay results from patent US8293751B2, “1,2,3-trisubstituted aryl and heteroaryl derivatives as modulators of metabolism and the prophylaxis and treatment of disorders related thereto such as diabetes and hyperglycemia” (Arena Pharmaceuticals, Inc., priority 2003, dated 2012).
Entries after “also recorded” stand apart in the source; their conditions may differ.

Key:
[1] = tested on: db mice (C57BL/KsOlahsd-Leprdb, diabetic); assay: Acute response of db mice to RUP3 agonist (blood glucose); assay type: in vivo; settings: male db mice; 60 mg/kg, oral gavage; FIG. 5B
Description: B. […] Male db mice (C57BL/KsOlahsd-Leprdb, diabetic, Harlan) at age of 10 weeks were randomly grouped (n=6) to receive vehicle (oral gavage), Compound B70 (60 mg/kg, oral gavage), or Ex-4 (1 μg/kg, intraperitoneally). After compound administration, food was removed and blood glucose levels were determined at indicated times as shown in FIG. 5B. Reduction in blood glucose at each time point was expressed as percentage of original glucose levels, averaged from six animals for each group.

[2] = tested on: C57bl/6N mice; assay: Oral glucose tolerance test (oGTT) in mice; assay type: in vivo; settings: male C57bl/6N mice fasted 18 hours; p.o. 30 min before oral dextrose 5 g/kg; FIG. 5A
Description: A. Oral Glucose Tolerance Test (oGTT) (FIG. 5A).
Male C57bl/6N mice at age of 8 weeks were fasted for 18 hours and randomly grouped (n=11) to receive a RUP3 agonist (Compound B70) at indicated doses, or with control extendin-4 (ex-4, 1 μg/kg), a GLP-1 peptide analog known to stimulate glucose-dependent insulin secretion. Compound B70 was delivered orally via a gavage needle (p.o. volume at 100 μl). Control Ex-4 was delivered intraperitoneally. Thirty minutes after administration of test compound and control ex4, mice were administered orally with dextrose at 5 g/kg dose. Levels of blood glucose were determined at the indicated time points using Glucometer Elite XL (Bayer).

[3] = target: T1, RUP3 (Homo sapiens, UniProt Q8TDV5); assay: 96-Well Cyclic AMP Membrane Assay for RUP3 (Membrane Cyclase Assay); assay type: biochemical; settings: RUP3 membranes, cAMP Flashplate
T1 construct: seen in the listing only (N); seen in the listing only (C); expressed in transfected cells
T1 sequence (Q8TDV5 with tags, fused parts or gaps): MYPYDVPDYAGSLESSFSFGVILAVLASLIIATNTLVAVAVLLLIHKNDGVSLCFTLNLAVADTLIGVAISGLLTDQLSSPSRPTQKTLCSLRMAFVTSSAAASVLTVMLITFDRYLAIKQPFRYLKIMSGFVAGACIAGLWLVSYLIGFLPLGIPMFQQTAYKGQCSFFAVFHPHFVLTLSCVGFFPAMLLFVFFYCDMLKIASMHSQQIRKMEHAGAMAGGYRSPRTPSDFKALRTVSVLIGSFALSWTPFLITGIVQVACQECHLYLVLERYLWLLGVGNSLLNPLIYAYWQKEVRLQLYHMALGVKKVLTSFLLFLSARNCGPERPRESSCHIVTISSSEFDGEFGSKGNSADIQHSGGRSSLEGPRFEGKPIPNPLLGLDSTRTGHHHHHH
Description: 96-Well Cyclic AMP Membrane Assay for RUP3
Binding Buffer—filter through […] Nalgene filter and keep in refrigerator. All buffers and membranes should be kept cold (in ice bucket) while performing assay. • 20 mM Hepes, pH7.4 • 1 mM MgCl2 • 100 mM NaCl • 2× Regeneration Buffer (make in binding buffer): • 20 mM Phosphocreatine (1.02 gm/200 ml binding buffer) • 20 units Creatine phosphokinase (4 mg/200 ml) • 20 uM GTP (make up 10.46 mg/ml in binding buffer and add 200 ul/200 ml) • 0.2 mM ATP (22.04 mg/200 ml) • […] IBMX (44.4 mg IBMX dissolved in 1 ml 100% DMSO first and then add the entire amount to 200 ml of buffer).
Regeneration buffer can be aliquotted into 40-45 ml portions (in 50 ml sterile tubes) and kept frozen for up to 2 months. Simply put the tube in a beaker with room temperature water to thaw out the regeneration buffer on the day of the assay. […]
IC50s or EC50s are done in triplicate. […] The membranes are kept in ice all the time, and a polytron (Brinkmann polytron, model #PT-3100) is used (setting 6-7, for 15-20 seconds) to obtain a homogeneous membrane suspension.) Protein concentration is determined by Bradford protein assay kit using instructions given in the kit, using the standard supplied with the kit as a reference. […]

O=[N+]([O-])c1c(Nc2ccc(-n3cncn3)cc2)ncnc1N1CCC(Sc2ccccn2)CC1 [Compound B70, {5-Nitro-6-[4-(pyridin-2-ylsulfanyl)-piperidin-1-yl]-pyrimidin-4-yl}-(4-[1,2,4]triazol-1-yl-phenyl)-amine]
blood glucose levels compared to vehicle control [1]: significantly reduces glucose levels compared to vehicle control | blood glucose after glucose challenge (oGTT) [2]: lowered blood glucose in a dose-dependent manner; also recorded: in a dose-dependent manner on the lowering of blood glucose after glucose challenge | IC50 [3]: 129 nM
